From US20100035871A1, “BENZOXAZINE DERIVATIVES AND USES THEREOF” (priority 2006, published 2010)
Structures can show the parent of a compound that is named as a salt.

| Structure (SMILES) | melting point |
| --- | --- |
| NC[C@H]1CNc2cccc(-c3ccccc3Cl)c2O1 (as salt: hydrochloride) [Example 39, 1-[(2S)-8-(2-chlorophenyl)-3,4-dihydro-2H-1,4-benzoxazin-2-yl]methanamine] | 145 °C (dec.) |
| NC[C@@H]1CNc2cccc(-c3ccccc3Cl)c2O1 (as salt: hydrochloride) [Example 40, 1-[(2R)-8-(2-chlorophenyl)-3,4-dihydro-2H-1,4-benzoxazin-2-yl]methanamine] | 135 °C (dec.) |
| NC[C@@H]1CNc2cccc(-c3ccccc3C(F)(F)F)c2O1 (as salt: hydrochloride) [Example 41, 1-{(2R)-8-[2-(trifluoromethyl)phenyl]-3,4-dihydro-2H-1,4-benzoxazin-2-yl}methanamine] | 180 °C (dec.) |
| Cc1cc(Cl)ccc1-c1cccc2c1O[C@H](CN)CN2 (as salt: hydrochloride) [Example 42, 1-[(2R)-8-(4-chloro-2-methylphenyl)-3,4-dihydro-2H-1,4-benzoxazin-2-yl]methanamine] | 195 °C (dec.) |
| NC[C@@H]1CNc2cccc(-c3ccccc3F)c2O1 (as salt: hydrochloride) [Example 43, 1-[(2R)-8-(2-fluorophenyl)-3,4-dihydro-2H-1,4-benzoxazin-2-yl]methanamine] | 186 °C (dec.) |
| COc1ccc(-c2cccc3c2O[C@H](CN)CN3)c(C)c1 (as salt: hydrochloride) [Example 44, 1-[(2R)-8-(4-methoxy-2-methylphenyl)-3,4-dihydro-2H-1,4-benzoxazin-2-yl]methanamine] | 221 °C (dec.) |
| COc1ccc(-c2cccc3c2O[C@H](CN)CN3)cc1 (as salt: hydrochloride) [Example 45, 1-[(2R)-8-(4-methoxyphenyl)-3,4-dihydro-2H-1,4-benzoxazin-2-yl]methanamine] | 196 °C (dec.) |
| COc1ccccc1-c1cccc2c1OC(CN)CN2C (racemic) (as salt: hydrochloride) [Example 1, 1-[8-(2-Methoxyphenyl)-4-methyl-3,4-dihydro-2H-1,4-benzoxazin-2-yl]methanamine] | 90 °C (dec.) |
| Cc1cc(Cl)ccc1-c1cccc2c1OC(CN)CN2C (racemic) (as salt: hydrochloride) [Example 2, 1-[8-(4-Chloro-2-methylphenyl)-4-methyl-3,4-dihydro-2H-1,4-benzoxazin-2-yl]methanamine] | 109 to 112 °C |
| CN1CC(CN)Oc2c(-c3ccc(Cl)cc3Cl)cccc21 (racemic) (as salt: hydrochloride) [Example 3, 1-[8-(2,4-Dichlorophenyl)-4-methyl-3,4-dihydro-2H-1,4-benzoxazin-2-yl]methanamine] | 90 °C (dec.) |
| CN1CC(CN)Oc2c(-c3ccccc3C(F)(F)F)cccc21 (racemic) (as salt: hydrochloride) [Example 4, 1-{4-Methyl-8-[2-(trifluoromethyl)phenyl]-3,4-dihydro-2H-1,4-benzoxazin-2-yl}methanamine] | 90 °C (dec.) |
| COc1ccc(-c2cccc3c2OC(CN)CN3C)c(C)c1 (racemic) (as salt: hydrochloride) [Example 5, 1-[8-(4-Methoxy-2-methylphenyl)-4-methyl-3,4-dihydro-2H-1,4-benzoxazin-2-yl]methanamine] | 85 °C (dec.) |
| COc1ccc(-c2cccc3c2OC(CN)CN3C)cc1 (racemic) (as salt: hydrochloride) [Example 6, 1-[8-(4-Methoxyphenyl)-4-methyl-3,4-dihydro-2H-1,4-benzoxazin-2-yl]methanamine] | 90 to 92 °C |
| CN1CC(CN)Oc2c(-c3ccccc3F)cccc21 (racemic) (as salt: hydrochloride) [Example 7, 1-[8-(2-Fluorophenyl)-4-methyl-3,4-dihydro-2H-1,4-benzoxazin-2-yl]methanamine] | 104 °C (dec.) |
| Cc1ccccc1-c1cccc2c1OC(CN)CN2C (racemic) (as salt: hydrochloride) [Example 8, 1-[4-Methyl-8-(2-methylphenyl)-3,4-dihydro-2H-1,4-benzoxazin-2-yl]methanamine] | 92 °C (dec.) |
| CN1CC(CN)Oc2c(-c3ccccc3)cccc21 (racemic) (as salt: hydrochloride) [Example 9, 1-(4-Methyl-8-phenyl-3,4-dihydro-2H-1,4-benzoxazin-2-yl)methanamine] | 80 °C (dec.) |

Next, values leading:

| melting point | Structure (SMILES) |
| --- | --- |
| 211 °C (dec.) | COc1ccc(-c2cccc3c2O[C@H](CN)CN3)c(Cl)c1 (as salt: hydrochloride) [Example 46, 1-[(2R)-8-(2-chloro-4-methoxyphenyl)-3,4-dihydro-2H-1,4-benzoxazin-2-yl]methanamine] |
| 179 °C (dec.) | NC[C@H]1CNc2cccc(-c3ccccc3C(F)(F)F)c2O1 (as salt: hydrochloride) [Example 47, 1-{(2S)-8-[2-(trifluoromethyl)phenyl]-3,4-dihydro-2H-1,4-benzoxazin-2-yl}methanamine] |
| 196 °C (dec.) | Cc1cc(Cl)ccc1-c1cccc2c1O[C@@H](CN)CN2 (as salt: hydrochloride) [Example 48, 1-[(2S)-8-(4-chloro-2-methylphenyl)-3,4-dihydro-2H-1,4-benzoxazin-2-yl]methanamine] |
| 190 °C (dec.) | NC[C@H]1CNc2cccc(-c3ccccc3F)c2O1 (as salt: hydrochloride) [Example 49, 1-[(2S)-8-(2-fluorophenyl)-3,4-dihydro-2H-1,4-benzoxazin-2-yl]methanamine] |
| 222 °C (dec.) | COc1ccc(-c2cccc3c2O[C@@H](CN)CN3)c(C)c1 (as salt: hydrochloride) [Example 50, 1-[(2S)-8-(4-methoxy-2-methylphenyl)-3,4-dihydro-2H-1,4-benzoxazin-2-yl]methanamine] |
| 198 °C (dec.) | COc1ccc(-c2cccc3c2O[C@@H](CN)CN3)cc1 (as salt: hydrochloride) [Example 51, 1-[(2S)-8-(4-methoxyphenyl)-3,4-dihydro-2H-1,4-benzoxazin-2-yl]methanamine] |
| 215 °C (dec.) | COc1ccc(-c2cccc3c2O[C@@H](CN)CN3)c(Cl)c1 (as salt: hydrochloride) [Example 52, 1-[(2S)-8-(2-chloro-4-methoxyphenyl)-3,4-dihydro-2H-1,4-benzoxazin-2-yl]methanamine] |
| 130 °C (dec.) | NC[C@@H]1CNc2cccc(-c3cc(Cl)ccc3Cl)c2O1 (as salt: hydrochloride) [Example 53, 1-[(2R)-8-(2,5-dichlorophenyl)-3,4-dihydro-2H-1,4-benzoxazin-2-yl]methanamine] |
| 163 °C (dec.) | NC[C@@H]1CNc2cccc(-c3ccc(Cl)cc3Cl)c2O1 (as salt: hydrochloride) [Example 54, 1-[(2R)-8-(2,4-dichlorophenyl)-3,4-dihydro-2H-1,4-benzoxazin-2-yl]methanamine] |
| 203 °C (dec.) | NC[C@@H]1CNc2cccc(-c3ccc(Cl)cc3C(F)(F)F)c2O1 (as salt: hydrochloride) [Example 67, 1-{(2R)-8-[4-chloro-2-(trifluoromethyl)phenyl]-3,4-dihydro-2H-1,4-benzoxazin-2-yl}methanamine] |
